Results on 21 molecules are retold here after patent publication US10308608B2, “Histone deacetylase inhibitors” (BIOMARIN PHARMACEUTICAL INC., priority 2015, dated 2019).

Where a name gives a salt, the structure may show the parent alone.

The test system of one data set is Frataxin (FXN) mRNA. Description: Effect of HDAC inhibitors on frataxin (FXN) mRNA expression, qRT-PCR in compound-treated iPSC derived neuronal cells. Particulars: compound concentration of 0.625 μM, 24 h incubation, dihydrochloride, 0.625 µM. The data set is classed as cell-based. In short, it runs like this: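 iPSC-derived neuronal cells, differentiated 16 days without EGF/bFGF, treated with compound 24 h. FXN mRNA measured by one-step SYBR Green qRT-PCR; fold induction reported at 0.625 μM compound, binned A<1, 1<B<2, 2<C<3, 3<D<5, E>5.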
In general terms: Quantitative PCR measures a nucleic acid by following its amplification.
As for `Nc1ccccc1NC(=O)c1ccc(OC2CCCN(CC3CCCCC3)CC2)cc1` (single isomer, unassigned) [Compound 40B, N-(2-aminophenyl)-4-((1-(cyclohexylmethyl)azepan-4-yl)oxy)benzamide dihydrochloride], the “FXN mRNA fold induction” value is “C (2<C<3)”.

Still in this data set, the particulars now being: iPSC, 24 h, compound concentration of 0.625 μM, 24 h incubation, read-out: FXN mRNA fold induction.
As to `CC(C)CN1CC[C@H](Nc2ccc(C(=O)Nc3ccccc3N)cc2)C1` [Compound 96, (S)-N-(2-aminophenyl)-4-((1-isobutylpyrrolidin-3-yl)amino)benzamide], the fold induction at 0.625 µM was in the range of 1 to 2.

With `CC(C)(O)CN1CCC(Oc2ccc(C(=O)Nc3ccccc3N)cc2)CC1` [Compound 2, N-(2-aminophenyl)-4-((1-(2-hydroxy-2-methylpropyl)piperidin-4-yl)oxy)benzamide], the fold induction at 0.625 µM fell in the range of 1 to 2.

`CN1CCC(Oc2ccc(C(=O)Nc3ccccc3N)cc2)CC1` [Compound 66, N-(2-aminophenyl)-4-((1-methylpiperidin-4-yl)oxy)benzamide dihydrochloride]: the fold induction at 0.625 µM lay in the range of 1 to 2.

Take `Nc1ccccc1NC(=O)c1ccc(O[C@@H]2CCN(CC3CC3)C2)cc1` [Compound 62, (R)-N-(2-aminophenyl)-4-((1-(cyclopropylmethyl)pyrrolidin-3-yl)oxy)benzamide dihydrochloride]: the fold induction at 0.625 µM was in the range of 1 to 2.

On to `CC(C)CN1CCCC(Nc2ccc(C(=O)Nc3ccccc3N)cc2)CC1` (stereo not drawn) [Compound 80, N-(2-aminophenyl)-4-((1-isobutylazepan-4-yl)amino)benzamide], for which the fold induction at 0.625 µM lay within 2 to 3.

In the case of `Nc1ccccc1NC(=O)c1ccc(NC2CCN(C3COC3)CC2)cc1` [Compound 141, N-(2-aminophenyl)-4-((1-(oxetan-3-yl)piperidin-4-yl)amino)benzamide], the fold induction at 0.625 µM lay in the range of 1 to 2.

Take `Nc1ccccc1NC(=O)c1ccc(OC2CCCN(CC3CCCCC3)CC2)cc1` (single isomer, unassigned) [Compound 40A, N-(2-aminophenyl)-4-((1-(cyclohexylmethyl)azepan-4-yl)oxy)benzamide dihydrochloride]: the fold induction at 0.625 µM is 1 to 2.

Turning to `Nc1ccccc1NC(=O)c1ccc(N[C@H]2CCN(CC3CCCCC3)C2)cc1` [Compound 101, (S)-N-(2-aminophenyl)-4-((1-(cyclohexylmethyl)pyrrolidin-3-yl)amino)benzamide], the fold induction at 0.625 µM lay within 2 to 3.

For `CC1(CN2CCCC(Oc3ccc(C(=O)Nc4ccccc4N)cc3)CC2)CC1` (stereo not drawn) [Compound 39, N-(2-aminophenyl)-4-((1-((1-methylcyclopropyl)methyl)azepan-4-yl)oxy)benzamide], the fold induction at 0.625 µM was in the range of 3 to 5.

In the case of `CN1CC[C@@H](Oc2ccc(C(=O)Nc3ccccc3N)cc2)C1` [Compound 58, (R)-N-(2-aminophenyl)-4-((1-methylpyrrolidin-3-yl)oxy)benzamide], the fold induction at 0.625 µM fell in the range of 2 to 3.

As to `CN1CC[C@@H](Nc2ccc(C(=O)Nc3ccccc3N)cc2)C1` [Compound 103, (R)-N-(2-aminophenyl)-4-((1-methylpyrrolidin-3-yl)amino)benzamide], the fold induction at 0.625 µM was 1 to 2.

As to `CC1(CN2CCC(Oc3ccc(C(=O)Nc4ccccc4N)cc3)CC2)CC1` [Compound 68, N-(2-aminophenyl)-4-((1-((1-methylcyclopropyl)methyl)piperidin-4-yl)oxy)benzamide dihydrochloride], the fold induction at 0.625 µM was 1 to 2.

For `Nc1ccccc1NC(=O)c1ccc(O[C@@H]2CCN(C3CC3)C2)cc1` [Compound 129, (R)-N-(2-aminophenyl)-4-((1-cyclopropylpyrrolidin-3-yl)oxy)benzamide], the fold induction at 0.625 µM was 1 to 2.

As to `Nc1ccccc1NC(=O)c1ccc(OC2CCNCC2)cc1` [Compound 65, N-(2-aminophenyl)-4-(piperidin-4-yloxy)benzamide hydrochloride], the fold induction at 0.625 µM lay in the range of 2 to 3.

Take `CC1(CN2CC[C@H](Nc3ccc(C(=O)Nc4ccccc4N)cc3)C2)CC1` [Compound 100, (S)-N-(2-aminophenyl)-4-((1-((1-methylcyclopropyl)methyl)pyrrolidin-3-yl)amino)benzamide]: the fold induction at 0.625 µM was 1 to 2.

Regarding `Nc1ccccc1NC(=O)c1ccc(OC2CN(CC3CC3)C2)cc1` [Compound 46, N-(2-aminophenyl)-4-((1-(cyclopropylmethyl)azetidin-3-yl)oxy)benzamide dihydrochloride], the fold induction at 0.625 µM lay within 1 to 2.

As to `CC(C)CN1CC[C@@H](Nc2ccc(C(=O)Nc3ccccc3N)cc2)C1` [Compound 104, (R)-N-(2-aminophenyl)-4-((1-isobutylpyrrolidin-3-yl)amino)benzamide trihydrochloride], the fold induction at 0.625 µM lay in the range of 2 to 3.

The data set is the same for the next values; noted with them: iPSC, 24 h, read-out: FXN mRNA fold induction, compound concentration of 0.625 μM, 24 h incubation.
In the case of `CC(C)(C)CN1C2CCC1CC(Oc1ccc(C(=O)Nc3ccccc3N)cc1)C2` (stereo not drawn) [Compound 74, N-(2-aminophenyl)-4-((8-neopentyl-8-azabicyclo[3.2.1]octan-3-yl)oxy)benzamide dihydrochloride], the fold induction at 0.625 µM lay within 1 to 2.

`CC(C)(O)CN1C2CCC1CC(Nc1ccc(C(=O)Nc3ccccc3N)cc1)C2` (stereo not drawn) [Compound 118, N-(2-aminophenyl)-4-((8-(2-hydroxy-2-methylpropyl)-8-azabicyclo[3.2.1]octan-3-yl)amino)benzamide]: the fold induction at 0.625 µM lay in the range of 2 to 3.

Consider `CC(C)CN1C2CCC1CC(Oc1ccc(C(=O)Nc3ccccc3N)cc1)C2` (stereo not drawn) [Compound 72, N-(2-aminophenyl)-4-((8-isobutyl-8-azabicyclo[3.2.1]octan-3-yl)oxy)benzamide dihydrochloride], for which the fold induction at 0.625 µM lay in the range of 1 to 2.
